According to publication PMC11467737, “Osteocalcin binds to a GPRC6A Venus fly trap allosteric site to positively modulate GPRC6A signaling” (FASEB BioAdvances, 2024):
Changes are numbered by the printed parent chain. Bridge positions count the residues as written; N and C are the ends. Ends that are not written are not given here.

Legend:
Format in all cases: cell-based
K352E/H355P hGPRC6A = target: T1, K352E/H355P hGPRC6A (Homo sapiens, UniProt Q5T6X5, H355P/K352E); test: cAMP accumulation in HEK-293 cells transfected with K352E/H355P hGPRC6A; conditions: for cAMP accumulation by Ocn small fragments: K352E/H355P double mutant, fragment at 20 nM, Figure 6C
T1 construct: expressed in transfected cells; host or cells: HEK-293, pcDNA3
T1 sequence (Q5T6X5 19-926 K352E/H355P): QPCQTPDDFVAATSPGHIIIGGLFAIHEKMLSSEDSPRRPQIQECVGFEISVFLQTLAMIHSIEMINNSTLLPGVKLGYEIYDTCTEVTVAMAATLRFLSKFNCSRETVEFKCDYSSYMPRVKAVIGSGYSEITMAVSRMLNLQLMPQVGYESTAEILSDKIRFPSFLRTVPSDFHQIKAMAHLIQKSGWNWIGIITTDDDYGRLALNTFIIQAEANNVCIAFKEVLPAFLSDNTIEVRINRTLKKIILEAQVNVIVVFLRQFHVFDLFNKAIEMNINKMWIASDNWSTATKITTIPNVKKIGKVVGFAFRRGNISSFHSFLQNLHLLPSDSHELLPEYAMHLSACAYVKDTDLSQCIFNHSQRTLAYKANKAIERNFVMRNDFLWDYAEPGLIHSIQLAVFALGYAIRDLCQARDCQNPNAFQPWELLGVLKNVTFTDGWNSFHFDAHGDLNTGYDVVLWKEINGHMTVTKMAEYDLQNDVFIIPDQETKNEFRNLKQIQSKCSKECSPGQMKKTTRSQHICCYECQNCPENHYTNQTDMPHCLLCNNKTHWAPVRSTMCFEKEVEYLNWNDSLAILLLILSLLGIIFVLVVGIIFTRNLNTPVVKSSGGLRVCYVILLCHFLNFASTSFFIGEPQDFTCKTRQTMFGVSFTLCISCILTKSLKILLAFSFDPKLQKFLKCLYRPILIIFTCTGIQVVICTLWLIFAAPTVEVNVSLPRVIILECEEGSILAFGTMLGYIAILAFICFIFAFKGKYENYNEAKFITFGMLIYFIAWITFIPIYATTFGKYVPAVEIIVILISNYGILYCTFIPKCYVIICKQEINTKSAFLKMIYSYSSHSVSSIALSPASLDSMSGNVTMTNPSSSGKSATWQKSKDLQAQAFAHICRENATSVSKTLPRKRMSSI
Procedure: (§1) HEK‐293 transfected with human GPRC6A isoform cDNA plasmids cells (10^5 cells/well)[30] were cultured in 24‐well plates in DMEM supplemented with 10% fetal bovine serum and 1% penicillin/streptomycin (100 U/mL of penicillin and 100 μg/mL of streptomycin) for 48 h followed by 4 h incubation in DMEM/F12 containing 0.1% BSA and 0.5 mM IBMX to achieve quiescence and preventing cAMP degradation. Quiescent cells were treated with vehicle control, various ligands at concentration as indicated for 40 min at 37°C. Then, the reaction was stopped, and the cells lysed with 0.5 mL 0.1 N HCl. cAMP levels were measured by using Cyclic AMP EIA kit (Cayman Chemical; Ann Arbor, MA, USA) following the manufacture's protocol.
In‐vitro mutagenesis by PCR‐mediated recombination QuikChange II XL Site‐Directed Mutagenesis Kit (Agilent) was performed using the cDNA of human GPRC6A cloned in the vector pcDNA3 (Invitrogen) as a template. The primer sets are as follows. K352E.sen: […]; K352E.antisen: […]; H355P.sen: […]; H355P.antisen: […]; K352E/H355P.sen: […]; and K352E/H355P.antisen: […]. All mutants were confirmed by sequencing.

human GPRC6A isoform 1 [1] = target: T2, human GPRC6A isoform 1 (Homo sapiens, UniProt Q5T6X5); test: ERK activation (phospho-ERK/total ERK ELISA) in HEK-293 cells transfected with human GPRC6A isoform 1 (wild-type); conditions: for ERK phosphorylation by synthesized human Ocn fragments: fragments at 20 nM, HEK-293 with pcDNA3-hGPRC6A, Figure 3B / S5B
T2 construct: expressed in transfected cells; host or cells: HEK-293, pcDNA3-hGPRC6A
T2 sequence (Q5T6X5 19-926): T1 sequence (Q5T6X5 19-926 K352E/H355P) with E334K, P337H
Procedure: All culture reagents were from Invitrogen (Waltham, MA, USA). Human embryonic kidney HEK‐293 cells were obtained from American Type Culture Collection and cultured in DMEM medium supplemented with 10% fetal bovine serum and 1% Penicillin/Streptomycin (P/S). Briefly, HEK‐293 cells transfected with/without human GPRC6A isoforms cDNA plasmids were starved by overnight incubation in serum‐free DMEM/F12 containing 0.1% bovine serum albumin (BSA) and stimulated with various ligands at different doses. […]

human GPRC6A isoform 1 [2] = target: T2, human GPRC6A isoform 1; test: cAMP accumulation in HEK-293 cells transfected with human GPRC6A isoform 1 (wild-type, full length); conditions: for cAMP accumulation by synthesized human Ocn fragments: fragments at 20 nM, Figure 3C / S5C
Procedure: as §1

[3] = HEK-293 with pcDNA3-hGPRC6A, 40 min

cAMP accumulation by Ocn small fragments (K352E/H355P hGPRC6A) | ERK phosphorylation by synthesized human Ocn fragments (human GPRC6A isoform 1 [1]; 15 min) | Potency compared to full-length Ocn 1–49, cAMP dose response (human GPRC6A isoform 1 [2]; HEK-293 with pcDNA3-hGPRC6A, Figure S5A) | cAMP accumulation by synthesized human Ocn fragments (human GPRC6A isoform 1 [2]; [3]) | cAMP accumulation, dose response of full-length Ocn, versus wild-type receptor (K352E/H355P hGPRC6A; K352E/H355P mutant, Figure 6A) | ERK phosphorylation, dose response of full-length Ocn (human GPRC6A isoform 1 [1]; WT hGPRC6A, Figure 6B) | cAMP accumulation, dose response of full-length Ocn (human GPRC6A isoform 1 [2]; WT hGPRC6A, Figure 6A) | Substance | Ocn-induced ERK activation, dose response (human GPRC6A isoform 1 [1]; isoform 1, Ocn 1.73, 8.65, 17.3, 26.0 nM, 1 mM calcium, 15 min, Figure 2B) | Ocn-induced cAMP accumulation, dose response (human GPRC6A isoform 1 [2]; isoform 1, Ocn 1.73, 8.65, 17.3, 26.0 nM, 1 mM calcium, 40 min, Figure 2C)
no response | high activity | greater potency | high activity | – | – | – | REVCELNPDC (disulfide 4-10 (inferred)) [Ocn 20–29, synthesized human Ocn decapeptide fragment located in the middle of the protein] | – | –
partially activate | high activity | – | high activity | – | – | – | RFYGPV [Ocn 44–49, synthesized human Ocn C‐terminal hexapeptide] | – | –
– | – | – | – | significantly decreased | dose‐dependently stimulated | dose‐dependently stimulated | osteocalcin (YLYQWLGAPVPYPDPLEPRREVCELNPDCDELADHIGFQEAYRRFYGPV; not fully specified; ends and bridges not checked; UniProt P02818 52-100, looked up) [Ocn 1–49, full human Ocn (49 aa) synthesized by BioMatik; methods also describe decarboxylated Ocn purified from bovine tibial bone, reference compound] | activated GPRC6A isoform 1 in a dose dependent manner | activated GPRC6A isoform 1 in a dose dependent manner
